Where “and” joins values, the source holds several entries; their conditions need not be identical. Equal entries are not always repeated. Where two headings read alike, the source gives them in different places. Blank lines part the entries; values can stand above or below the molecule they belong to.
Key:
[1] = molecular target: T1, MATE1 (Homo sapiens, UniProt Q96FL8); assay: [14C]TEA uptake in HEK293 cells overexpressing human MATE1; conditions: for inhibition of MATE1-mediated uptake of TEA (in words): TKI 10 µM; for inhibition at 10 µM: human
T1 sequence (Q96FL8 1-570): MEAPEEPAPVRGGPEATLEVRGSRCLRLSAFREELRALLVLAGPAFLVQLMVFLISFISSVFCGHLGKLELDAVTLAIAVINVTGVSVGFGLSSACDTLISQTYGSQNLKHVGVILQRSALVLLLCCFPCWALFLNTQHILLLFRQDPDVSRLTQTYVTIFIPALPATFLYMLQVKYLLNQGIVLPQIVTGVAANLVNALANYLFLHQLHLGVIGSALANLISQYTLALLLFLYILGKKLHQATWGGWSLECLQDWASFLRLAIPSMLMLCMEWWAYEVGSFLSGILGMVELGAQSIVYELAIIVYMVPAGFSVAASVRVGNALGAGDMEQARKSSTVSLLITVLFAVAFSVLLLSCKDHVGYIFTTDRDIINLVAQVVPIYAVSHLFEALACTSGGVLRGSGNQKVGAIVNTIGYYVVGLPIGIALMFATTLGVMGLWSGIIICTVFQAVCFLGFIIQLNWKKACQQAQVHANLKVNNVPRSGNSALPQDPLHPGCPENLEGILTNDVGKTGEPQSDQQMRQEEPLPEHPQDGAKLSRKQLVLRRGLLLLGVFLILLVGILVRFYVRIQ
Description: (§1) Uptake experiments in HEK293 cells overexpressing mouse (m) and human (h) OCT2 or MATE1 were performed with radiolabeled tetraethylammonium (TEA) as the model substrate, using standard methods in the presence or absence of TKIs. The cell culture and uptake conditions for cells expressing mMATE1 or hMATE1 were described previously. […] Since the inhibitory potential of various xenobiotics against OCT2 and MATE1 is dependent on preincubation with perpetrator drugs, a 15-min preincubation period with the TKIs was employed unless stated otherwise. All results were normalized to uptake values in cells transfected with an empty vector or DMSO-treated groups.
(§2) MATE1-overexpressed cells were pre-incubated with transport media containing 30 mM ammonium chloride for 20 min at 37 °C following previously published protocol (pH 7.4 for hMATE1 [17, 18, 19] and pH 8.4 for mMATE1 [20, 21]) to ensure interactions can be evaluated between outward-facing MATE1 and substrate uptake before adding inhibitors. Then, preincubation media was removed and cells were incubated with transport media (NH4Cl free) containing radiolabeled compounds. […] The uptake of TEA and metformin was measured by liquid scintillation counting, as described previously. For uptake studies involving platinum drugs, cells were collected with TrypLE, and the pellets were lysed overnight in 0.2% nitric acid. After sonication, total platinum levels were determined by flameless atomic absorption spectrometry.

[2] = system: MATE1; conditions: cited from earlier work
[3] = molecular target: T2, human OCT2 (Homo sapiens, UniProt O15244); assay: [14C]TEA uptake in HEK293 cells stably transfected with human OCT2; type: cell-based; conditions: TKI 10 µM
T2 construct: host or cells: HEK293 (Flp-In system, pcDNA5/FRT)
T2 sequence (O15244 1-555): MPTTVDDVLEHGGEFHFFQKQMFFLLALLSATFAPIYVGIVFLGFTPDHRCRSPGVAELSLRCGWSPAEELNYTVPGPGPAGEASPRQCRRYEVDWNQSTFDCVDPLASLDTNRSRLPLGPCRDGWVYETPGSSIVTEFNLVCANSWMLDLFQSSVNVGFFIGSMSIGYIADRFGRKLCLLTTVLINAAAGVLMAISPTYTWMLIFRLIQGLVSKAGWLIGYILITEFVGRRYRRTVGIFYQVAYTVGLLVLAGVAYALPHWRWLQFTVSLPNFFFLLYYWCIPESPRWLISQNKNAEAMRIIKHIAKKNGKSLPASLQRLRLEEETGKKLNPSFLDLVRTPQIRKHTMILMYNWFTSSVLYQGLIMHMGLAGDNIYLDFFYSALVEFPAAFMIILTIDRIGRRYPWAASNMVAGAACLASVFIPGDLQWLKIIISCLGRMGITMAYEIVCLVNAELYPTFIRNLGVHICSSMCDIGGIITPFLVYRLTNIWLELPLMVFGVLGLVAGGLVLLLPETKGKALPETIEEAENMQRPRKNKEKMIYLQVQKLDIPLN
Description: as §1, §2

[4] = system: MATE1 gene; assay: MATE1 gene expression by RT-PCR in MATE1-overexpressing cells exposed to TKIs; type: cell-based, human
Source text: RNA was extracted using the Qiagen kit from treated cells in 12-well plates or kidney tissues obtained from untreated or treated mice. Taqman primers Hs00217320_m1 and Mm00840361_m1 were obtained from Thermo Fisher Scientific (Waltham, MA, USA) and used for the hMATE1 and mMATE1 genes. The primers Hs02786624_g1 and Mm99999915_g1 were used as the house-keeping control genes for hGAPDH and mGAPDH, respectively.

[5] = design: method as in PMID 18787054; conditions: cited from earlier work
[6] = system: mouse OCT2, or MATE1 transporters; conditions: dasatinib 10 µM, oxaliplatin 50 µM
Description: as §1
as §2, with “For uptake studies involving platinum drugs, cells were collected with TrypLE, and the pellets were lysed overnight in 0.2% nitric acid.” left out

[7] = system: human OCT2, or MATE1 transporters; conditions: dasatinib 10 µM, oxaliplatin 50 µM
Description: as §1
as §2, with “For uptake studies involving platinum drugs, cells were collected with TrypLE, and the pellets were lysed overnight in 0.2% nitric acid.” left out

[8] = system: MATE1; assay: Plasma N-methylnicotinamide (NMN) as MATE1 biomarker in mice after dasatinib; type: in vivo, mouse; conditions: wild-type mice, dasatinib 15 mg/kg oral
[9] = molecular target: T3, mouse MATE1 (Mus musculus, UniProt Q8K0H1); assay: cell-based
T3 sequence (Q8K0H1 1-567): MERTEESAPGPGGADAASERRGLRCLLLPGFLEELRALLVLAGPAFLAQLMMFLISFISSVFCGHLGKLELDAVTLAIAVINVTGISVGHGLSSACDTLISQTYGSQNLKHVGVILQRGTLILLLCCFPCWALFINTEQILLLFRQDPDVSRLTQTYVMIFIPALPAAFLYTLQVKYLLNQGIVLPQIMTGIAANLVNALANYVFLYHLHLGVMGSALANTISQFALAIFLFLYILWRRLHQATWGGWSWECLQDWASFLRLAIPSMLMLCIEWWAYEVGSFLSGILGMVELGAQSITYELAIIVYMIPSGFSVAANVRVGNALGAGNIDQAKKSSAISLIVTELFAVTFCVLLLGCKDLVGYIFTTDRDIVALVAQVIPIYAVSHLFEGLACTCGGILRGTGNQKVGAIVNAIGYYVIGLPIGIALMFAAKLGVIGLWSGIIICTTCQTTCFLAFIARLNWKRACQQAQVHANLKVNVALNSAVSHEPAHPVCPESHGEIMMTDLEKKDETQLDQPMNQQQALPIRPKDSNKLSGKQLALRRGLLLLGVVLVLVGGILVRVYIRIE
Description: as §1, §2

[10] = cited from earlier work
[11] = Human plasma pharmacokinetics of total platinum, patient with colorectal cancer; type: in vivo; conditions: oxaliplatin 85 mg/m2 i.v. infusion
Description: In order to assess the degree of MATE1 inhibition by dasatinib, analyses of N-methylnicotinamide (see below) were performed in plasma samples collected at serial time points (up to 24 h after the end of infusion). Plasma samples were also subjected to dasatinib analysis by liquid chromatography with tandem mass spectrometric detection (LC-MS/MS) and analyzed for total platinum levels by flameless atomic absorption spectrometry. The study protocol (ClinicalTrial.gov Identifier: NCT04164069) was approved by the institutional review board of the -The Ohio State University Comprehensive Cancer Center (OSU IRB #2019C0141, approval date 01 March 2019), and the patient provided written informed consent prior to enrollment.

[12] = Murine plasma pharmacokinetics of total platinum; type: in vivo, mouse
Source text: For pharmacokinetic studies, plasma and tissue samples were collected from male wild-type mice (8–12 weeks old), and age-matched MATE1-deficient [MATE1(−/−)] mice, and mice additionally deficient for OCT1 and OCT2 [OCT1/2/MATE1(−/−)], following an established protocol. All animals were backcrossed on an FVB strain, were given a standard diet and water ad libitum, and housed and handled in accordance with the University Laboratory Animal Resources (ULAR) Animal Care and Use Committee at The Ohio State University (2015A00000101-R1). […] Concentrations of total platinum in plasma and tissues were measured by flameless atomic absorption spectrometry, as previously reported, by interpolation of unknown readings on linear calibration curves prepared in drug-free nitric acid (0.2%) using linear-least squares regression analysis.

[13] = Urinary excretion of oxaliplatin in mice (metabolic cages); type: in vivo, mouse; conditions: mice deficient in MATE1 or both OCT2 and MATE1 vs wild-type; oxaliplatin 10 mg/kg i.p.
[14] = HEK293 cells overexpressing human MATE1, pH 7.4, probe [14C]TEA (tetraethylammonium), 2 µM
[15] = publicly available information, ref FDA/EMA or supplement refs 1-8
[16] = Mouse IC50, HEK293 cells overexpressing mouse MATE1
[17] = dasatinib pre-treatment 100 mg p.o.
[18] = OCT1,2/MATE1-/- mice + dasatinib 15 mg/kg p.o. pretreatment, oxaliplatin 10 mg/kg i.p.
[19] = OCT1,2/MATE1-/- mice, cisplatin 15 mg/kg i.p. or oxaliplatin 10 mg/kg i.p.
[20] = wild-type mice + dasatinib 15 mg/kg p.o. pretreatment, oxaliplatin 10 mg/kg i.p.
[21] = wild-type mice, cisplatin 15 mg/kg i.p. or oxaliplatin 10 mg/kg i.p.

- inhibition of MATE1-mediated uptake of TEA (in words) [1]: potently inhibiting
- inhibition at 10 µM [1, 14]: 99.2%
- influence on OCT2 function (in words) [3]: potently inhibiting
Structure (SMILES): COc1cc(Nc2c(C#N)cnc3cc(OCCCN4CCN(C)CC4)c(OC)cc23)c(Cl)cc1Cl [Bosutinib]
- IC50 [2, 15]: < 10 µM

Structure (SMILES): Cc1nc(Nc2ncc(C(=O)Nc3c(C)cccc3Cl)s2)cc(N2CCN(CCO)CC2)n1 [Dasatinib]
- inhibition of MATE1-mediated uptake of TEA (in words) [1]: completely inhibited
- inhibition at 10 µM [1, 14]: 95.4%
- expression of MATE1 (in words) [4]: downregulated
- suppression of MATE1 gene expression [4]: ~ 50%
- ability of cells to transport oxaliplatin after dasatinib pre-treatment (in words) [6]: dramatically impaired
- ability of cells to transport oxaliplatin after dasatinib pre-treatment (in words) [7]: dramatically impaired
- plasma levels of NMN (in words) [8]: transient, statistically significant increase

Structure (SMILES): C=CC(=O)N1CCC[C@@H](n2nc(-c3ccc(Oc4ccccc4)cc3)c3c(N)ncnc32)C1 [Ibrutinib]
- IC50 [1]: 1.03 µM
- inhibition at 10 µM ([1]; pH 7.4): 91.8%
- IC50 [9]: 51.5 µM

Structure (SMILES): Cc1cn(-c2cc(NC(=O)c3ccc(C)c(Nc4nccc(-c5cccnc5)n4)c3)cc(C(F)(F)F)c2)cn1 [Nilotinib]
- inhibition at 10 µM [1, 14]: 95.7%
- IC50 [9, 16]: 45.4 µM and 45.3 µM
- expression of MATE1 (in words) [4]: downregulated

Structure (SMILES): O=C1[O][Pt]2([NH][C@@H]3CCCC[C@H]3[NH]2)[O]C1=O [Oxaliplatin]
- fecal excretion [10]: about 2 % of the dose
- urinary excretion [10]: > 50 % of the dose
- AUC [11, 17]: 11.6 µg·h/mL
- Cmax [11, 17]: 0.87 µg/mL
- AUC ([11]; without dasatinib): 11.3 µg·h/mL
- Cmax ([11]; without dasatinib): 0.96 µg/mL
- AUC [12, 18]: 7.53 ± 0.90 µg·h/mL
- Cmax [12, 18]: 3.86 ± 0.01 µg/mL
- AUC [12, 19]: 10.5 ± 0.01 µg·h/mL
- Cmax [12, 19]: 3.61 ± 0.18 µg/mL
- AUC [12, 20]: 12.2 ± 0.71 µg·h/mL
- Cmax [12, 20]: 4.80 ± 0.01 µg/mL
- plasma pharmacokinetic profile after dasatinib pretreatment (in words) ([12]; wild-type mice, single dose of dasatinib 15 mg/kg): unchanged
- AUC [12, 21]: 10.7 ± 1.00 µg·h/mL
- Cmax [12, 21]: 2.76 ± 0.04 µg/mL
- reduction of urinary excretion [13]: about 2 fold

- inhibition at 10 µM [1, 14]: 72.1%
- influence on OCT2 function (in words) [3]: no influence
Structure (SMILES): CNC(=O)c1cc(Oc2ccc(NC(=O)Nc3ccc(Cl)c(C(F)(F)F)c3)c(F)c2)ccn1 [Regorafenib]
- IC50 [2, 15]: < 10 µM

Structure (SMILES): CNC(=O)c1cc(Oc2ccc(NC(=O)Nc3ccc(Cl)c(C(F)(F)F)c3)cc2)ccn1 [Sorafenib]
- inhibition at 10 µM [1, 14]: 83.8%
- influence on OCT2 function (in words) [3]: no influence

Structure (SMILES): CCN(CC)CCNC(=O)c1c(C)[nH]c(/C=C2\C(=O)Nc3ccc(F)cc32)c1C [Sunitinib]
- inhibition of MATE1-mediated uptake of TEA (in words) [1]: potently inhibiting
- inhibition at 10 µM ([1]; pH 7.4): 98%
- influence on OCT2 function (in words) [3]: potently inhibiting

- IC50 [9, 16]: > 50 µM
Structure (SMILES): CN/C(=N/CCSCc1nc[nH]c1C)NC#N [cimetidine]
